{"source": "patent US20180028591A1", "about": "“MALE AND FEMALE INFERTILITY HERBAL COMPOSITION” (priority 2016, published 2018)", "origin": "cited, not measured here", "test_system": "rabbit penile tissue", "details": "by nitric oxide and PDE5 activity", "data": [{"smiles": "COc1ccc(-c2oc3c(CC=C(C)C)c(O[C@@H]4O[C@H](CO)[C@@H](O)[C@H](O)[C@H]4O)cc(O)c3c(=O)c2O[C@@H]2O[C@@H](C)[C@H](O)[C@@H](O)[C@H]2O)cc1", "note": "[icariin]", "values": [{"measurement": "relaxation of penile tissue", "result": "relax rabbit penile tissue"}]}]}
